Reference: patent EP0133534A2, “Pyridyl compounds” (THE WELLCOME FOUNDATION LIMITED, priority 1983, dated 1985)

What was measured:
histamine [1] = test: In vitro antihistaminic activity: shift of histamine concentration-response curves in isolated guinea-pig ileum longitudinal muscle (Schild plot); type: biochemical, guinea-pigs; settings: negative log of molar antagonist concentration shifting the control histamine concentration-response curve 2X to the right; tissue incubated one hour with test compound; 60 min
Protocol: A.Invitro antihistaminic activity: The longitudinal muscle was isolated from the intact ileum of guinea-pigs (Harley, male 250-400 g) and placed in an organ bath under 300 mg tension. After one hour of equilibration, cumulative concentration-response curves (Van Rossum, J.M., Arch. Int. Pharmacodyn. Ther. 143 299-330,1963) to histamine were obtained. Following washing, the tissues were incubated for one hour with the test compound and then a second histamine concentration-response curve was run. Shifts to the right of the agonist concentration-response curve produced by the antagonists were used to construct Schild plots (Arunlakshana, O. and Schild, H.O., Br. J. Pharmacol: 14, 48-58, 1959). Regression of Log (dr-1) on Log/B/, where dr is an equiactive response in the presence and absence of antagonist and /B/ is the molar concentration of antagonist, allowed an estimate of pA2, i.e. the negative log of the. concentration of antagonist which shifts the control histamine concentration-response curve 2X to the right.
The antihistaminic activities of compounds of the present invention are detailed in table A below.

histamine [2] = settings: metabolite of triprolidine in man; known from prior art; cited from earlier work

Compound | pA2 (histamine [1]) | antihistamine activity (histamine [2])
O=S(=O)(O)c1cccc(/C(=C/CN2CCCC2)c2ccccc2)c1 [Example 2, (E)-3-(1-phenyl-3-pyrrolidinoprop-1-enyl)-benzenesulphonic Acid] | 7.1 | –
O=S(=O)(O)c1cccc(C(CCN2CCCC2)c2ccccc2)c1 (stereo not shown) [Example 3, 3-(1-phenyl-3-pyrrolidinopropyl) benzenesulphonic acid] | 7.3 | –
O=C(O)c1ccc(/C(=C\CN2CCCC2)c2ccccn2)cc1 [(E)-1-(4-carboxyphenyl)-1-(2-pyridyl)-3-pyrrolidinoprop-1-ene] | – | little or no antihistamine activity
Cc1ccc(/C(=C\CN2CCCC2)c2cccc(/C=C/c3nnn[nH]3)n2)cc1 [Example 1, 5-(E-6-[3-pyrrolidino-1-(4-tolyl)prop-1E-enyl]-2-pyridylvinyl)-1H-tetrazole] | 8.7 | –
